Measured values taken from the NIST ThermoML archive (doi:10.1016/j.jct.2010.02.010).
Numbers after ± are expanded uncertainties.

Conditions: for mass density: 101.33 kPa, Buoyancy - hydrostatic balance; for mass density / surface tension liquid-gas: Liquid; for surface tension liquid-gas: Maximal bubble pressure

CCCC[n+]1ccccc1.[O]=[Re](=[O])(=[O])[O-] [1-butylpyridinium perrhenate]
Conditions	mass density [kg/m3]	surface tension liquid-gas [mN/m]
293.15 K	1910.1 ± 8.1	41.6 ± 0.6
298.15 K	1902.5 ± 8.1	41.2 ± 0.6
303.15 K	1894.9 ± 8	40.7 ± 0.6
308.15 K	1886.9 ± 8	40.5 ± 0.6
313.15 K	1881.8 ± 8	40 ± 0.6
318.15 K	1877.6 ± 7.9	39.7 ± 0.6
323.15 K	1869.2 ± 7.9	39.4 ± 0.6
328.15 K	1862.7 ± 7.9	39 ± 0.6
333.15 K	1856.9 ± 7.9	38.6 ± 0.6
338.15 K	1853.2 ± 7.8	38.3 ± 0.6
343.15 K	1846.8 ± 7.8	38.2 ± 0.6

Conditions	Glass transition temperature [°C]
Glass, DTA	-66 ± 1
